From patent EP3795574A1, “SYNTHESIS AND USAGE OF 1,2-DIAMINODIAMANTANE PLATINUM(II) COMPLEXES” (Justus-Liebig-Universität Gießen, priority 2019, dated 2021)

What was measured:
[1] = compared to cisplatin; cited from earlier work
[2] = tested on: testicular cancer; details: cited from earlier work
[3] = tested on: guanosine monophosphate (GMP); test: Nucleotide binding experiment by 1H NMR, GMP; details: molar ratio 1:3.5, 37 °C, 66 h, DMF-d7/D2O, compared to cisplatin
Description: (§1) Formation of DNA cross-links is the crucial part of the platinum cytotoxicity mechanism. To study diaplatin complex 1 activity on nucleotides in comparison to cisplatin we chose guanosine monophosphate (GMP) and deoxyguanosine monophosphate (dGMP) as substrates (Fig 6). The reaction between platinum complexes and GMP or dGMP causes substitution of their leaving group ligands with nucleotide forming monoadducts that quickly lose a second leaving ligand forming bisadducts. The N7 atom of the purine fragment is known to be the preferred site of attachment to platinum, thus causing easily observable downfield NMR shifts of the adjacent H8 atom. The collected ^1H NMR data during incubation of the reaction mixtures provide time-dependent changes of the H8 atom integral, thereby providing insights into the binding rates between the studied complexes (Fig 7).
(§2) A platinum complex solution in DMF-d7 (0.27 mL, 6.9 mM) was reacted with GMP or dGMP in a molar ratio 1:3.5 introduced with a NaClO4 solution in D2O (0.33 mL, 100 mM). The reaction mixture was immediately transferred into an NMR tube and ^1H NMR data were collected every hour for 66 h at 37 °C. The pH was measured immediately after the reaction mixture was prepared and at the end of the reaction at rt.

[4] = tested on: deoxyguanosine monophosphate (dGMP); test: Nucleotide binding experiment by 1H NMR, dGMP; details: molar ratio 1:3.5, 37 °C, 66 h, DMF-d7/D2O, compared to cisplatin
Description: as §1, §2

[5] = tested on: human ovarian cancer cell line A2780; test: Cellular viability assay (resazurin / Alamar Blue, 72 h); details: A2780, 72 h at 37 °C, compared to cisplatin; result in words
[6] = tested on: A2780cis; test: Cellular viability assay (resazurin / Alamar Blue, 72 h), cisplatin-resistant variant; details: 72 h at 37 °C, compared to cisplatin, result in words
[7] = Solubility of the complexes in solvents

N.N.O=C([O-])C1(C(=O)[O-])CCC1.[Pt+2] [Carboplatin]
increase in concentration to achieve the same effect [1]: 20-40 fold

N.N.[Cl][Pt][Cl] [Cisplatin, cis-dichlorodiamineplatinum(II)]
cure rate [2]: 90%

cis-[1,2-diaminodiamantane]dichlorideplatinum(II) [(R,R)-1]
rate of bisadduct formation [3]: faster with (R,R)-1 than with cisplatin
rate of bisadduct formation [4]: faster with (R,R)-1 than with cisplatin

cis-[1,2-diaminodiamantane]dichlorideplatinum(II) [(S,S)-1]
rate of bisadduct formation [4]: faster than for (R,R)-1 and cisplatin
cytotoxicity [5]: lowest efficacy
cytotoxicity [6]: lowest efficacy

cis-[1,2-diaminodiamantane]dichlorideplatinum(II) [compound 1]
solubility ([7]; in DMF): good solubility
solubility ([7]; in methanol): somewhat soluble

cis-[1,2-diaminodiamantane]oxalatoplatinum(II) [(S,S)-2]
solubility ([7]; […]): insoluble
